Experimental data: paper PMC9840614, “A gain-of-function TPC2 variant R210C increases affinity to PI(3,5)P2 and causes lysosome acidification and hypopigmentation” (Nature Communications, 2023)

Assays:
Type in all cases: cell-based
[1] = target: T1, Two Pore Channel 2 (TPC2), R210C (Homo sapiens, UniProt Q8NHX9, R210C); assay: whole-endolysosome patch clamp, HEK293 vacuoles, […]
T1 construct: gene TPCN2; EGFP-TPC2 R210C

[2] = target: T2, Two Pore Channel 2 (TPC2), R210C (Homo sapiens, UniProt Q8NHX9, L11A/L12A/R210C); assay: inside-out patch clamp, HEK293, concentration response
T2 construct: gene TPCN2; EGFP-tagged plasma membrane-targeted TPC2 L11A/L12A
T2 sequence (Q8NHX9 whole entry L11A/L12A/R210C): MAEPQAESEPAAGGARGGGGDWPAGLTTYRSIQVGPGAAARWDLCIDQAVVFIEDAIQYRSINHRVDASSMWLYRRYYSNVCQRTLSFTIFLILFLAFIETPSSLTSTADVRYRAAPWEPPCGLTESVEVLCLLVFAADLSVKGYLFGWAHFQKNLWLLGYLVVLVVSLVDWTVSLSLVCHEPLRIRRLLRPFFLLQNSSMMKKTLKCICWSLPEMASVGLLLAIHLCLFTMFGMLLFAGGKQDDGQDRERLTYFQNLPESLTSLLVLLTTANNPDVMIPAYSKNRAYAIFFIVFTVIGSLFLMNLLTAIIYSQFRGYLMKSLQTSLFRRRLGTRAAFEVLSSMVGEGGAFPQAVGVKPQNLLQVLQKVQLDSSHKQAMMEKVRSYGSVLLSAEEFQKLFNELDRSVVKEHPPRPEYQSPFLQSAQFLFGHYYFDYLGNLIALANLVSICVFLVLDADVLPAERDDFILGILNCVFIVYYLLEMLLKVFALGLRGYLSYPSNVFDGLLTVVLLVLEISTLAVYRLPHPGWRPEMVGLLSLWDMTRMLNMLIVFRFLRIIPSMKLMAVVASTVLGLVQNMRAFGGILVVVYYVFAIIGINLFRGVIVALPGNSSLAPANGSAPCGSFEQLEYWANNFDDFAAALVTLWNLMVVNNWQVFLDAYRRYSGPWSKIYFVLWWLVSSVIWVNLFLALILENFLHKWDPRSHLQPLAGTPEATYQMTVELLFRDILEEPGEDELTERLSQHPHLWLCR

[3] = target: T3, Two Pore Channel 2 (TPC2), R210A (Homo sapiens, UniProt Q8NHX9, R210A); assay: channel activation EC50 (n = […], data not shown in figures)
T3 construct: gene TPCN2
T3 sequence (Q8NHX9 whole entry R210A): as the sequence (Q8NHX9 whole entry L11A/L12A/R210C) above, with A11L, A12L, C210A counted along it

[4] = target: T4, Two Pore Channel 2 (TPC2) (Homo sapiens, UniProt Q8NHX9, L11A/L12A); assay: inside-out patch clamp, HEK293, concentration response
T4 construct: gene TPCN2; EGFP-tagged plasma membrane-targeted TPC2 L11A/L12A
T4 sequence (Q8NHX9 whole entry L11A/L12A): as the sequence (Q8NHX9 whole entry L11A/L12A/R210C) above, with C210R counted along it

T1 sequence (Q8NHX9 whole entry R210C): as the sequence (Q8NHX9 whole entry L11A/L12A/R210C) above, with A11L, A12L counted along it

| SMILES | whole-endolysosome patch clamp, HEK293 vacuoles, 100 nM [1] | EC50 [2] | EC50 [3] | EC50 [4] |
| --- | --- | --- | --- | --- |
| COc1ccc([C@H]2N[C@H](C(=O)O)Cc3c2[nH]c2ccccc32)cc1CN1CCN(c2ccccc2F)CC1 [Ned-19] | Ned-19 inhibited the R210C currents at both potentials with fast kinetics |  |  |  |
| CCCCCCCC(=O)OC[C@H](COP(=O)(O)O[C@@H]1[C@H](O)[C@H](OP(=O)(O)O)[C@@H](O)[C@H](OP(=O)(O)O)[C@H]1O)OC(=O)CCCCCCC [PI(3,5)P2-diC8] |  | 2.27 ± 0.25 nM | 19.4 ± 0.74 nM | 209 ± 19.2 nM |
